# Assay results reported in PMC9525273 (Nature Communications, 2022).
# Several values for one entry are separate records, joined by “and”; a condition that tells them apart may be missing. Equal values may be shown once. Read-outs that look alike come from different tables or passages of the source.
# Experiments:
# Format in all cases: cell-based, Plasmodium falciparum
# [1] = system: Dd2-Polδ-PfATP4^G358S parasites; assay: P. falciparum proliferation assay (72 h, fluorescent DNA-intercalating dye); details: for IC50: Dd2-Polδ-PfATP4G358S parasites
# Protocol: (§1) For experiments with all other parasites, the effects of compounds of interest on parasite proliferation was measured in 96-well plates containing serial dilutions of the compounds in culture medium, with a fluorescent DNA-intercalating dye used to detect surviving parasites. The assays were initiated with erythrocytes infected with predominantly ring-stage parasites, and the starting parasitaemia and haematocrit were both 1%.
# Dd2-Polδ parasites = assay: as above; details: Dd2-Polδ parasites
# Protocol: as §1
# NF54^WT parasites = assay: microbe, parasite or virus in culture
# Protocol: (§2) For the NF54-based lines and Dd2-B2-PfATP4^G358S and its parent, assays were initiated with cultures containing predominantly ring-stage parasites with a parasitaemia of 0.3% and a haematocrit of 1%. All assays using NF54 were performed in culture media containing 10% O + human serum. The duration of the assays was 72 h and the concentration of DMSO was <0.5% (v/v). Serial dilutions of the test compounds were performed using a Tecan D300e digital dispenser, with parasite cultures added manually. Parasite survival was assessed by flow cytometry on an Intellicyt iQue3 (Essen Bioscience), with 1× SYBR Green I (Invitrogen) and 200 nM MitoTracker Deep Red FM (Invitrogen) used to stain the nucleus and the mitochondria in live parasites, respectively. The gating strategy used to quantify parasite survival, performed using FlowJo version 10 (FlowJo LLC.), is illustrated in Supplementary Fig. 9. IC50 and IC90 values were calculated by linear interpolation of the dose-response data.
# NF54^CTL parasites = assay: P. falciparum proliferation assay (72 h, flow cytometry, SYBR Green I/MitoTracker)
# Protocol: as §2
# NF54^G358S-1 parasites = assay: as above; details: for FC (IC50) / FC (IC90): NF54G358S-1 compared to NF54WT
# Protocol: as §2
# NF54^G358S-2 parasites = assay: as above
# Protocol: as §2
# [2] = system: parasite lines with a G358S mutation in PfATP4; assay: P. falciparum proliferation assays, statements on all lines with the G358S mutation; details: G358S lines vs PfATP4 wild-type controls
# Protocol: as §2, with “Two types of parasite proliferation assays were employed in this study, with both yielding highly consistent results. For” for “For”
# as §1, with “1%. […] Fluorescence was measured using a FLUOstar OPTIMA plate reader (BMG LABTECH), with OPTIMA version 2.20R2 and MARS Data Analysis Software version 3.01 R2 (BMG LABTECH).” for “1%.”
# [3] = individual experiments, read-out: IC50 values
# [4] = mean of the experiments, read-out: IC50 values, MEAN
# [5] = NF54WT parasites, individual experiments, read-out: IC50 values
# [6] = NF54WT parasites, individual experiments, read-out: IC90 values
# [7] = NF54CTL parasites, individual experiments, read-out: IC50 values
# [8] = NF54G358S-1 parasites, individual experiments, read-out: IC50 values
# [9] = NF54G358S-1 parasites, individual experiments, read-out: IC90 values
# [10] = NF54G358S-2 parasites, individual experiments, read-out: IC50 values
# [11] = NF54G358S-2 parasites, individual experiments, read-out: IC90 values
structure (smiles),measurement,setting,value
CCOC(=O)C1=CN(C)C=C(C(=O)OCC)C1c1cc(Br)c(OCC)c(OC)c1 [MMV006656],IC50,[1]; [3],1560 nM and 1990 nM and 1300 nM and 2350 nM
same,IC50,[1]; [4],1800 nM
same,IC50 fold higher than that of Dd2-Polδ parent,"[1]; Dd2-Polδ-PfATP4G358S vs Dd2-Polδ, mean ± SEM",5.7 ± 1.3 fold
same,IC50,Dd2-Polδ parasites; [3],435 nM and 243 nM and 394 nM and 305 nM
same,IC50,Dd2-Polδ parasites; [4],344 nM
CCNCc1cc(Nc2ccnc3cc(Cl)ccc23)ccc1O [Monodesethyl‐amodiaquine],IC50,NF54^WT parasites; [5],10.5 nM
same,IC90,NF54^WT parasites; [6],7.38 nM and 7.32 nM and 7.45 nM and 14.6 nM
same,IC50,"NF54^WT parasites; NF54WT parasites, mean of the experiments, read-out: IC50 values, MEAN",6.9 nM
same,IC90,"NF54^WT parasites; NF54WT parasites, mean of the experiments, read-out: IC90 values, MEAN",9.2 nM
same,FC (IC50),"NF54^WT parasites; NF54WT, reference line",1.0 fold
same,FC (IC90),"NF54^WT parasites; NF54WT, reference line",1.0 fold
same,FC (Mean IC90/IC50),"NF54^WT parasites; NF54WT, reference line",1.0 fold
same,IC50,NF54^WT parasites; read-out: IC50 values,5.7 nM
same,FC (IC50),NF54^CTL parasites; NF54CTL compared to NF54WT,1.0 fold
same,FC (IC90),NF54^CTL parasites; NF54CTL compared to NF54WT,1.5 fold
same,FC (Mean IC90/IC50),NF54^CTL parasites; NF54CTL compared to NF54WT,1.5 fold
same,IC50,NF54^CTL parasites; [7],6.5 nM and 6.8 nM and 7.4 nM and 7.2 nM
same,IC50,"NF54^CTL parasites; NF54CTL parasites, mean of the experiments, read-out: IC50 values, MEAN",7 nM
same,IC50,"NF54^G358S-1 parasites; NF54G358S-1, 10% human serum, read-out: IC50 ± SEM",7.6 ± 0.8 nM
same,FC (IC50),NF54^G358S-1 parasites,1.1 fold
same,FC (IC90),NF54^G358S-1 parasites,1.4 fold
same,IC50,NF54^G358S-1 parasites; [8],5.6 nM and 7.6 nM and 8.1 nM and 9.2 nM
same,IC90,NF54^G358S-1 parasites; [9],7.37 nM and 14 nM (2×) and 14.3 nM
same,IC50,"NF54^G358S-1 parasites; NF54G358S-1 parasites, mean of the experiments, read-out: IC50 values, MEAN",7.6 nM
same,IC90,"NF54^G358S-1 parasites; NF54G358S-1 parasites, mean of the experiments, read-out: IC90 values, MEAN",12.4 nM
same,FC (IC50),NF54^G358S-2 parasites; NF54G358S-2 compared to NF54WT,1.0 fold
same,FC (IC90),NF54^G358S-2 parasites; NF54G358S-2 compared to NF54WT,1.3 fold
same,FC (Mean IC90/IC50),NF54^G358S-2 parasites; NF54G358S-2 compared to NF54WT,1.3 fold
same,IC50,NF54^G358S-2 parasites; [10],5.9 nM and 7.4 nM and 7 nM
same,IC90,NF54^G358S-2 parasites; [11],7.97 nM and 13.8 nM and 13.5 nM
same,IC50,"NF54^G358S-2 parasites; NF54G358S-2 parasites, mean of the experiments, read-out: IC50 values, MEAN",6.8 nM
same,IC90,"NF54^G358S-2 parasites; NF54G358S-2 parasites, mean of the experiments, read-out: IC90 values, MEAN",12.2 nM
same,effect of the G358S mutation in PfATP4 on parasite susceptibility,[2],no effect
Clc1ccc2c(N3CCN(CCCN4CCN(c5ccnc6cc(Cl)ccc56)CC4)CC3)ccnc2c1 [Piperaquine],IC50,NF54^WT parasites; [5],22 nM and 14.7 nM and 19.4 nM
same,IC90,NF54^WT parasites; [6],29.8 nM and 27.5 nM and 28.8 nM
same,FC (IC50),"NF54^WT parasites; NF54WT, reference line",1.0 fold
same,FC (IC90),"NF54^WT parasites; NF54WT, reference line",1.0 fold
same,IC50,"NF54^WT parasites; Plasmodium falciparum, NF54, NF54WT parasites, individual experiments, read-out: IC50 values",22.7 nM
same,IC90,"NF54^WT parasites; Plasmodium falciparum, NF54, NF54WT parasites, individual experiments, read-out: IC90 values",30 nM
same,IC50,"NF54^WT parasites; Plasmodium falciparum, NF54, NF54WT parasites, mean of the experiments, read-out: IC50 values, MEAN",19.7 nM
same,IC90,"NF54^WT parasites; Plasmodium falciparum, NF54, NF54WT parasites, mean of the experiments, read-out: IC90 values, MEAN",29 nM
same,FC (IC50),NF54^CTL parasites; NF54CTL compared to NF54WT,0.9 fold
same,FC (IC90),NF54^CTL parasites; NF54CTL compared to NF54WT,1.2 fold
same,IC50,NF54^CTL parasites; [7],20.9 nM and 14.5 nM and 11.8 nM
same,IC90,"NF54^CTL parasites; NF54CTL parasites, individual experiments, read-out: IC90 values",37.3 nM and 28.1 nM and 26.3 nM
same,IC50,"NF54^CTL parasites; Plasmodium falciparum, NF54, NF54CTL parasites, individual experiments, read-out: IC50 values",21.9 nM
same,IC90,"NF54^CTL parasites; Plasmodium falciparum, NF54, NF54CTL parasites, individual experiments, read-out: IC90 values",45.9 nM
same,IC50,"NF54^CTL parasites; Plasmodium falciparum, NF54, NF54CTL parasites, mean of the experiments, read-out: IC50 values, MEAN",17.3 nM
same,IC90,"NF54^CTL parasites; Plasmodium falciparum, NF54, NF54CTL parasites, mean of the experiments, read-out: IC90 values, MEAN",34.4 nM
same,FC (IC50),NF54^G358S-1 parasites,0.9 fold
same,FC (IC90),NF54^G358S-1 parasites,1.1 fold
same,IC50,NF54^G358S-1 parasites; [8],22.2 nM and 14.8 nM and 12.9 nM
same,IC90,NF54^G358S-1 parasites; [9],43.7 nM and 27.9 nM and 26.4 nM
same,IC50,"NF54^G358S-1 parasites; Plasmodium falciparum, NF54, NF54G358S-1 parasites, individual experiments, read-out: IC50 values",20.8 nM
same,IC90,"NF54^G358S-1 parasites; Plasmodium falciparum, NF54, NF54G358S-1 parasites, individual experiments, read-out: IC90 values",34.2 nM
same,IC50,"NF54^G358S-1 parasites; Plasmodium falciparum, NF54, NF54G358S-1 parasites, mean of the experiments, read-out: IC50 values, MEAN",17.7 nM
same,IC90,"NF54^G358S-1 parasites; Plasmodium falciparum, NF54, NF54G358S-1 parasites, mean of the experiments, read-out: IC90 values, MEAN",33 nM
same,FC (IC50),NF54^G358S-2 parasites; NF54G358S-2 compared to NF54WT,0.9 fold
same,FC (IC90),NF54^G358S-2 parasites; NF54G358S-2 compared to NF54WT,1.1 fold
same,IC50,NF54^G358S-2 parasites; [10],24 nM and 13.5 nM and 13.3 nM
same,IC90,NF54^G358S-2 parasites; [11],48.2 nM and 27.4 nM and 26.7 nM
same,IC50,"NF54^G358S-2 parasites; Plasmodium falciparum, NF54, NF54G358S-2 parasites, individual experiments, read-out: IC50 values",21.3 nM
same,IC90,"NF54^G358S-2 parasites; Plasmodium falciparum, NF54, NF54G358S-2 parasites, individual experiments, read-out: IC90 values",30.8 nM
same,IC50,"NF54^G358S-2 parasites; Plasmodium falciparum, NF54, NF54G358S-2 parasites, mean of the experiments, read-out: IC50 values, MEAN",18 nM
same,IC90,"NF54^G358S-2 parasites; Plasmodium falciparum, NF54, NF54G358S-2 parasites, mean of the experiments, read-out: IC90 values, MEAN",33.3 nM
same,effect of the G358S mutation in PfATP4 on parasite susceptibility,[2],no effect
